# Assay results reported in publication PMC9468151, “Identification of a binding site on soluble RANKL that can be targeted to inhibit soluble RANK-RANKL interactions and treat osteoporosis” (Nature Communications, 2022).
# “And” between values parts separate entries of the source, which are not always exact repeats. Identical values can stand only once. “Also recorded” adds a separate entry of the source.
# Legend:
# [1] = tested on: sRANKL induced osteoclast differentiation; experiment: In vitro anti-osteoclastogenesis activity determination (TRAP staining); type: cell-based, mouse; conditions: BMMs, M-CSF + 100 ng/mL sRANKL, 5 days, TRAP staining
# Experimental: Mouse osteoclasts were cultured according to the previously reported protocols. BMMs were plated in 96-well plates at a density of 6 × 10^3 cells/well with complete medium containing 10 ng/mL M-CSF. The following day, cells were then stimulated with 100 ng/mL sRANKL in the presence or absence of compounds with different concentrations every 2 days until osteoclasts formed. In order to calculate IC50, we set 9 concentrations for each compound and untreated and non-sRANKL unstimulating group as controls, each with triplicated repeated wells. After 5 days, cells were fixed with 4% paraformaldehyde and then applied TRAP-staining to identify osteoclasts by using the TRAP-staining kit. Osteoclasts number (OC No.) in each well was counted and the percentage of inhibition ratio was calculated as follows:1 OCinhibitoryratio%=100−OCNo.treated−OCNo.unstimulating/OCNo.untreated−OCNo.unstimulating×100%
# The dosages and their correspondent osteoclastogenesis inhibitory activity curve and IC50 value were conducted by using Nonlinear regression (curve fit) analytic procedure in GraphPad Prism 8. Photographs of individual wells were taken using Leica microscope.
# T lymphocyte = T lymphocyte cell proliferation assay (CFSE, CD4+/CD8+ flow cytometry); type: cell-based, human
# Experimental: T lymphocyte cell proliferation assay was performed according to a reported method[58] with some modification. Briefly, 5 × 10^6 cells /mL cells were stained 2.5 μM CFSE (Tonbo Biosciences) and incubated at 37 °C for 12 min. Then washed and discarded the supernatant and adjusted the CFSE stained cell to 1.75 × 10^6 cells /mL. Cells were diluted in 1640 completed medium containing 5 μg/mL anti-CD3 antibody (Tonbo Biosciences) to 3 × 10^5 cells/mL and seed in a 96-well plate or 24-well plate that pre-packaged 0.4 μg/well anti-CD28 antibody and 1.6 μg anti-CD28 antibody (24-well) (Tonbo Biosciences). Cells were then cultured for 3 days, 9 days or 12 days. Subsequently, the proportion of CD4^+ and CD8^+ cells was determined by flow cytometry (Beckman Coulter, FC500) according to manufacturer’s instruction of PE-Cyanine7 anti-Human CD8a and PE anti-Human CD4 antibodies (Tonbo Biosciences). Data analyzing was performed by using CXP software (Beckman Coulter, Supplementary Fig. 8).
# [2] = Cancer donor 1, 3 day, Denosumab 2
# [3] = Cancer donor 1, 3 day, Denosumab 10
# [4] = Cancer donor 1, 3 day, Denosumab 50
# [5] = Cancer donor 1, 3 day, Denosumab 100
# [6] = Healthy donor 1, 3 day, Denosumab 2
# [7] = Healthy donor 1, 3 day, Denosumab 10
# [8] = Healthy donor 1, 3 day, Denosumab 50
# [9] = Healthy donor 1, 3 day, Denosumab 100
# [10] = Healthy donor 1, 12 day, Denosumab 2
# [11] = Healthy donor 1, 12 day, Denosumab 10
# [12] = Healthy donor 1, 12 day, Denosumab 50
# [13] = Healthy donor 1, 12 day, Denosumab 100
# [14] = Healthy donor 2, 9 day, Denosumab 2
# [15] = Healthy donor 2, 9 day, Denosumab 10
# [16] = Healthy donor 2, 9 day, Denosumab 50
# [17] = Healthy donor 2, 9 day, Denosumab 100
# [18] = cancer patient donors 1, 3 day, Denosumab conc. 2
# [19] = cancer patient donors 1, 3 day, Denosumab conc. 10
# [20] = cancer patient donors 1, 3 day, Denosumab conc. 50
# [21] = cancer patient donors 1, 3 day, Denosumab conc. 100
# [22] = healthy donors 2, 9 day, Denosumab conc. 2
# [23] = healthy donors 2, 9 day, Denosumab conc. 10
# [24] = healthy donors 2, 9 day, Denosumab conc. 50
# [25] = healthy donors 2, 9 day, Denosumab conc. 100
compound,measurement,setting,value
CCOC(=O)c1sc(NC(=O)C(=NNc2cc(C(=O)O)ccc2C(=O)O)C(C)=O)nc1C [S3-04],OC IC50 (anti-osteoclastogenesis activity),[1],Inactive; also recorded: lose osetoclastogenesis inhibitory activities
Denosumab: human monoclonal antibody targeting RANKL [reference compound],CD8+ cells in total cells (%),T lymphocyte; [2],12.95% and 18.88% and 19.88%
same,CD8+cells in CFSE-cells (%),T lymphocyte; [2],47.83% and 52.36% and 55.86%
same,CFSE- cells in total cells (%),T lymphocyte; [2],7.68% and 12.7% and 13.49%
same,CD8+ cells in total cells (%),T lymphocyte; [3],19.52% and 20.76% and 18.73% and 17.85%
same,CD8+cells in CFSE-cells (%),T lymphocyte; [3],58.3% and 60.56% and 50.89% and 60.05%
same,CFSE- cells in total cells (%),T lymphocyte; [3],14.67% and 15.58% and 13.42% and 13.19%
same,CD8+ cells in total cells (%),T lymphocyte; [4],26.97% and 21.55% and 18.02% and 16.53%
same,CD8+cells in CFSE-cells (%),T lymphocyte; [4],60.83% and 60.63% and 65.78% and 55.26%
same,CFSE- cells in total cells (%),T lymphocyte; [4],18.07% and 17.65% and 14.37% and 12.07%
same,CD8+ cells in total cells (%),T lymphocyte; [5],18.07% and 12.62% and 9.75% and 19.7%
same,CD8+cells in CFSE-cells (%),T lymphocyte; [5],58.14% and 64.44% and 57.46% and 66.87%
same,CFSE- cells in total cells (%),T lymphocyte; [5],13.67% and 8.82% and 5.94% and 14.04%
same,CD4+cells in total cells (%),T lymphocyte; [6],69.69% and 70.06% and 70.95% and 70.86%
same,CD8+ cells in total cells (%),T lymphocyte; [6],18.8% and 18.88% and 18.25% and 19.29%
same,CD8+cells in CFSE-cells (%),T lymphocyte; [6],26.34% and 25.38% and 32.57% and 36.89%
same,CFSE- cells in total cells (%),T lymphocyte; [6],26.84% and 28.54% and 29.29% and 24.77%
same,CD4+cells in total cells (%),T lymphocyte; [7],65.55% and 67.08% and 69.8% and 70.72%
same,CD8+ cells in total cells (%),T lymphocyte; [7],12.83% and 18.37% and 19.41% and 19.55%
same,CD8+cells in CFSE-cells (%),T lymphocyte; [7],30.74% and 26.84% and 36.74% and 30.32%
same,CFSE- cells in total cells (%),T lymphocyte; [7],20.59% and 18.28% and 26.59% and 31.48%
same,CD4+cells in total cells (%),T lymphocyte; [8],67.05% and 68.05% and 69.94%
same,CD8+ cells in total cells (%),T lymphocyte; [8],11.73% and 19.23% and 18.46% and 17.76%
same,CD8+cells in CFSE-cells (%),T lymphocyte; [8],24.41% and 28.83% and 32.28% and 24%
same,CFSE- cells in total cells (%),T lymphocyte; [8],15.36% and 19.21% and 18.01% and 22.17%
same,CD4+cells in total cells (%),T lymphocyte; [9],70.71% and 71.03% and 67.42% and 69.45%
same,CD8+ cells in total cells (%),T lymphocyte; [9],18.51% and 19.03% and 18%
same,CD8+cells in CFSE-cells (%),T lymphocyte; [9],34.99% and 31.86% and 30.15% and 27.25%
same,CFSE- cells in total cells (%),T lymphocyte; [9],23.52% and 25.01% and 20.72% and 24.32%
same,CD4+cells in total cells (%),T lymphocyte; [10],26.49% and 25.92% and 26.52% and 28.25%
same,CD8+ cells in total cells (%),T lymphocyte; [10],16.3% and 19.12% and 15.44% and 15.28%
same,CD8+cells in CFSE-cells (%),T lymphocyte; [10],73.19% and 72% and 71.55% and 68.56%
same,CFSE- cells in total cells (%),T lymphocyte; [10],14.97% and 17.18% and 14.07% and 13.53%
same,CD4+cells in total cells (%),T lymphocyte; [11],25.95% and 25.52% and 26.76% and 24.64%
same,CD8+ cells in total cells (%),T lymphocyte; [11],15.64% and 17.84% and 16.84% and 18.91%
same,CD8+cells in CFSE-cells (%),T lymphocyte; [11],74.4% and 67.54% and 67.82% and 72.96%
same,CFSE- cells in total cells (%),T lymphocyte; [11],15.13% and 15.31% and 14.05% and 17.18%
same,CD4+cells in total cells (%),T lymphocyte; [12],24.55% and 27.22% and 26.53% and 28.64%
same,CD8+ cells in total cells (%),T lymphocyte; [12],20.42% and 18.55% and 17.94% and 15.51%
same,CD8+cells in CFSE-cells (%),T lymphocyte; [12],76.93% and 74.3% and 73% and 74.26%
same,CFSE- cells in total cells (%),T lymphocyte; [12],19.56% and 16.94% and 16.16% and 14.84%
same,CD4+cells in total cells (%),T lymphocyte; [13],25.87% and 24.55% and 27.13% and 25.36%
same,CD8+ cells in total cells (%),T lymphocyte; [13],17.35% and 16.6% and 14.41% and 19%
same,CD8+cells in CFSE-cells (%),T lymphocyte; [13],75.89% and 76.07% and 78.18% and 58.5%
same,CFSE- cells in total cells (%),T lymphocyte; [13],16.6% and 18.55% and 14.85% and 14.03%
same,CD8+ cells in total cells (%),T lymphocyte; [14],62.1% and 50.03% and 44.09%
same,CD8+cells in CFSE-cells (%),T lymphocyte; [14],46.7% and 62.97% and 61.41%
same,CFSE- cells in total cells (%),T lymphocyte; [14],29.5% and 51.59% and 42.27%
same,CD8+cells in CFSE-cells (%),T lymphocyte; [15],52.77% and 43.74% and 55.57%
same,CFSE- cells in total cells (%),T lymphocyte; [15],41.17% and 28.01% and 37.92%
same,CD8+ cells in total cells (%),T lymphocyte; [16],20.69% and 38.29% and 38.09%
same,CD8+cells in CFSE-cells (%),T lymphocyte; [16],53.31% and 54.69% and 48.69%
same,CFSE- cells in total cells (%),T lymphocyte; [16],29.61% and 31.67% and 28.7%
same,CD8+ cells in total cells (%),T lymphocyte; [17],58.4% and 50.02% and 56.13%
same,CD8+cells in CFSE-cells (%),T lymphocyte; [17],75.13% and 70.69% and 68.35%
same,CFSE- cells in total cells (%),T lymphocyte; [17],59.44% and 46.67% and 44.15%
same,CD4+cells in total cells (%),T lymphocyte; [18],2.77% and 5.83% and 5.1%
same,CFSE-CD4+cells in CFSE-cells (%),T lymphocyte; [18],6.78% and 7.64% and 7.28%
same,CD4+cells in total cells (%),T lymphocyte; [19],4.94% and 4.86% and 1.84% and 3.11%
same,CFSE-CD4+cells in CFSE-cells (%),T lymphocyte; [19],6.34% and 3.24% and 8% and 8.92%
same,CD4+cells in total cells (%),T lymphocyte; [20],1.87% and 6.24% and 6.17% and 6.5%
same,CFSE-CD4+cells in CFSE-cells (%),T lymphocyte; [20],4% and 0.79% and 1.56% and 4.58%
same,CD4+cells in total cells (%),T lymphocyte; [21],9.55% and 7.15% and 9.97% and 6.77%
same,CFSE-CD4+cells in CFSE-cells (%),T lymphocyte; [21],4% and 0% and 0.9%
same,CD4+CFSE− cell after treatment,"T lymphocyte; cancer patient, Fig. 7c, control 5.32 ± 0.76%",1.33 ± 2.31%
same,total T cells isolated from cancer patient after treatment,"T lymphocyte; cancer patient, Fig. 7c, control 14.51 ± 3.71%",3.88 ± 1.77%
same,CD4+cells in total cells (%),"T lymphocyte; healthy donors 1, 3 day, Denosumab conc. 2",72.37% and 73.3% and 66.26% and 61.44%
same,CD4+cells in total cells (%),"T lymphocyte; healthy donors 1, 3 day, Denosumab conc. 10",65.16% and 71.53% and 62.16% and 68.6%
same,CD4+cells in total cells (%),"T lymphocyte; healthy donors 1, 3 day, Denosumab conc. 50",73.23% and 69.38% and 66.17% and 74.19%
same,CD4+cells in total cells (%),"T lymphocyte; healthy donors 1, 3 day, Denosumab conc. 100",64% and 66.67% and 68.46% and 71.67%
same,CFSE-CD4+cells in CFSE-cells (%),"T lymphocyte; healthy donors 1, 12 day, Denosumab conc. 2",9.68% and 10.89% and 9.04% and 9.57%
same,CFSE-CD4+cells in CFSE-cells (%),"T lymphocyte; healthy donors 1, 12 day, Denosumab conc. 10",10.52% and 10.85% and 8.44% and 10.78%
same,CFSE-CD4+cells in CFSE-cells (%),"T lymphocyte; healthy donors 1, 12 day, Denosumab conc. 50",8.71% and 10.48% and 9.97% and 9.81%
same,CFSE-CD4+cells in CFSE-cells (%),"T lymphocyte; healthy donors 1, 12 day, Denosumab conc. 100",9.75% and 11.53% and 10.58%
same,CD4+cells in total cells (%),T lymphocyte; [22],17% and 17.01% and 14.7%
same,CFSE-CD4+cells in CFSE-cells (%),T lymphocyte; [22],42.1% and 26.91% and 24.13%
same,CD4+cells in total cells (%),T lymphocyte; [23],13.52% and 17.3% and 15.5%
same,CFSE-CD4+cells in CFSE-cells (%),T lymphocyte; [23],24.29% and 47.85% and 28.82%
same,CD4+cells in total cells (%),T lymphocyte; [24],12.4% and 14.63% and 15.19%
same,CFSE-CD4+cells in CFSE-cells (%),T lymphocyte; [24],19.21% and 28.79% and 29.22%
same,CD4+cells in total cells (%),T lymphocyte; [25],14.9% and 10.87% and 12.57%
same,CFSE-CD4+cells in CFSE-cells (%),T lymphocyte; [25],20.36% and 16.35% and 22.15%
same,total CD4+ and CD4+CFSE− T cell,"T lymphocyte; human 2, 9 days, 100 μg/mL",dropped by nearly half
same,lymphocyte proliferation,"T lymphocyte; human lymphocytes, in words",notably inhibits lymphocyte proliferation at high concentration
